Source: patent publication US6479469B2, “Treatment of arthritis and compositions therefore” (priority 2000, dated 2002)
Entries after “also recorded” stand apart in the source; their conditions may differ.

What was measured:
[1] = system: experimentally induced inflammatory arthritis in Lewis rats; assay: Streptococcal cell wall induced inflammatory arthritis model, clinical assessment of hind legs; format: in vivo, rat; conditions: 18 days
From the text: The experimental arthritis was induced by injecting cell walls of streptococcal bateria intra-peritoneally into Lewis rats. The resulting arthritis leads to cartilage and bone destruction in the injected rat. This experimental model is considered to provide some of the most useful insights in the development of human inflammatory, destructive arthropathies.
Method: Inflammatory arthritis was induced in Lewis strain rats by a single intra-peritoneal injection of the streptococcal wall pepti-polysaccharide antigen, as described in Brahn E. “Animal models of rheumatoid arthritis. Clues to etiology and treatment.” Clin Orthop. 1991 Apr; (265): 42-53. Review. Van den Broek M F, van Bruggen M C, Simpson S A, Severijnen A J, van de Putte L B, van den Berg W B. “Flare-up reaction of streptococcal cell wall induced arthritis in Lewis and F344 rats: the role of T lymphocytes.” Clin Exp Immunol. 1990 Feb; 79 (2): 297-306. Chen W., Jin W, Cook M, Weiner H L, Wahl S M. “Oral delivery of group A streptococcal cell walls augments circulating TGF-beta and suppresses streptococcal cell wall arthritis.” J Immunol. 1998 Dec. 1; 161 (11): 6297-304. On the same day as the injection, the rats had their drinking water supplemented either with 5 mg or 50 mg of GlcN or GlcNBu in 400 ml of water. There were three rats in each of the above groups. The rats drank the water containing the above compounds in an unrestricted fashion. The drinking water was replenished, when finished, so that the rats drank the same concentrations of the compounds throughout the experimental observation period. Each animal consumed approximately between 20-30 ml of water each day for each of the groups. After 18 days of experimental observation, the rats' hind legs were visually inspected for clinical assessment of the development of arthritis.

[2] = humans, cited from earlier work
chondrocytes (BAC) = assay: BAC growth assay (chondrocyte cell proliferation, Coulter count); format: cell-based, bovine; conditions: for effect on cell growth: 0-6 mM, serum 20%, FIG. 10; for effect on cell growth / effect on the proliferation of chondrocytes: BAC subculture 6; for effect on the proliferation of chondrocytes: 1 mg/ml, glucose 0.5 mg/ml, TGF-β 10 μg/ml, serum 10%, FIG. 8
Protocol: Cartilage slices were removed aseptically from bovine knee joint and digested with collagenase to obtain single cell chondrocytes. Both primary cultures and subcultures were established by procedures described previously (Chan C. and Anastassiades T., Biochem Cell Biol 74:233-240, 1996; Howard S. and Anastassiades T., J Rheumatol 20:2083-2094, 1993).For the growth assays, cells were seeded at 15,000 cells/well and 33,000 cells/well for the 24 and 6 well plates, respectively, in glucose free Dulbecco's modified Eagle's culture medium, base which was supplemented with glucose (1 mg/ml) and serum (10%). These cells were incubated in a humidified atmosphere of 95% air and 5% carbon dioxide at 37° C. On the following day, the medium was changed to fresh medium containing test materials of interest. The cells were harvested at time intervals and cell number determined using Coulter counter (Coulter Electronics Inc. Florida, USA). Results are expressed as the means of three replicate wells and each well was counted twice. The data are presented as mean ± SEM.
Initial studies examined the effect of 1 mg/ml of GlcN, GlcNac, GlcNpr and GlcNbu on the proliferation of chondrocytes (BAC subculture 6) maintained in medium supplemented with glucose (0.5 mg/ml), TGF-β (10 μg/ml) and serum (10%). […] The cells barely thrive at serum concentrations lower than 10% (data not shown).
Further experiments were carried out to determine whether the growth stimulation could be due to butyrate group or a mechanism solely dependent on GlcNbu. In this case, chondrocytes (BAC subculture 6) were maintained in culture in the presence of glucose (1 mg/ml), serum (20%) and various concentrations (0-6 mM) of sodium butyrate, GlcNbu and GlcN. […] Therefore, the growth stimulation observed is due to GlcNbu. The effect of GlcNbu at varying glucose medium concentrations (0-0.5 mg/ml) were evaluated using early and late subcultured chondrocytes.

bovine chondrocytes = conditions: in vitro; cited from earlier work
[3] = system: Bovine Articular Chondrocytes; assay: Glycosaminoglycan synthesis by Bovine Articular Chondrocytes (35S incorporation); format: cell-based; conditions: 0.1 mM GlcNBu; 35S label 4 days; per well; control 82,000 CPM; FIG. 14
Protocol: Bovine articular chondrocytes were grown to confluency in 35 mm wells and labelled with ^35S for 4 days in the presence of different concentrations of GlcNBu. The Glycosaminoglycans (GAG) were isolated from the medium and the radioactivity incorporated into the isolated GAG was determined
With reference to FIG. 14, the results are expressed on a per well basis and represent the means and standard deviations from four replicate wells. […] The control (0 mM concentration of GlcNBu) is the first point on the left indicating 82,000 CPM and the lowest concentration of GlcNBu is 0.1 mM indicating 112,000 CPM.

dog with hip dysplasia = assay: Dog Study-2, dog with hip dysplasia, daily journal and video record; format: in vivo; conditions: 500 mg per day on food, one week
Protocol: 1 Week administration to arthritic/dysplastic dogs @ 500 mg set daily dose. Daily Journal and Video record was kept as described under Dog Study-1.
The subject was a 16-year-old female labrador crossbreed which had hip dysplasia evident in both hind limbs due to either age or an injury sustained at the age of 9 years.
Phase 1 The MGD was administered at 500 mg per day for a period of one week in a solution poured onto food.

[4] = system: mucopolysaccharides (glycosaminoglycans); conditions: Biochem. Pharmacol. (1973) 22:3018; cited from earlier work
[5] = system: dog with osteoarthritis due to anterior cruciate ligament injury; assay: Dog Study-1, osteoarthritic dog, daily journal and video record; format: in vivo
Protocol: 1 Week administration to arthritic/dysplastic dogs @500 mg set daily dose. A Daily Journal and Video record was kept.
The subject was a 9-year-old female collie crossbreed which had osteoarthritis due to a prior left anterior cruciate ligament injury (a previous tear now repaired). […] The animal is currently medicated with glucosamine at 500 mg per day.
For both Phase 1 and Phase 2 a video diary of a few minutes of two or three of the animal's exercise periods and a daily journal of casual observations was kept.

Compound | clinical assessment of arthritis in hind legs ([1]; 5 mg in 400 ml drinking water) | clinical assessment of arthritis in hind legs ([1]; 50 mg in 400 ml drinking water) | effect on cell growth (chondrocytes (BAC); glucose 1 mg/ml) | effect on the proliferation of chondrocytes (chondrocytes (BAC)) | owner-observed mobility / behaviour (dog with hip dysplasia) | further results
N[C@@H](C=O)[C@@H](O)[C@H](O)[C@H](O)CO [GlcN, 2-amino-2-deoxy-D-glucose, reference compound] | well-developed arthritis with swelling and redness in both of the hind lower legs | well-developed arthritis with swelling and redness in the right lower leg and less so in the left lower leg | decreased cell growth | inhibited cell growth compared to control | – | serum levels after oral or IV administration ([2]; very large doses): serum levels cannot be detected; growth or survival of chondrocytes (bovine chondrocytes): does not support growth or even survival of chondrocytes
CC(=O)N[C@H]1C(O)O[C@H](CO)[C@@H](O)[C@@H]1O (stereo partly drawn) [GlcNac, N-acetylglucosamine, reference compound] | – | – | – | much reduced effect on cell growth | – | half-life compared to glucosamine ([2]; Clin. Ther. (1996) 18:1184): longer half-life
CCCC(=O)N[C@H]1C(O)O[C@H](CO)[C@@H](O)[C@@H]1O (stereo partly drawn) [GlcNbu, N-Butyryl-D-glucosamine (2-n-Butanamido-2-deoxy-D-glucopyranose)] | normal hind lower legs and no clinical evidence of arthritis | minimal swelling in the right lower leg and probably a normal left lower leg | increased cell growth | significantly stimulated cell growth | a period of improvement | radioactivity incorporated into the GAG [3]: 112,000 CPM; cell growth at various serum concentrations (chondrocytes (BAC); GlcNbu 0.4-10 mM, glucose 1 mg/ml, 10% vs 20% serum, FIG. 9): more increase in cell growth at 20% than 10% serum; stimulation of cell growth at varying glucose medium concentrations (chondrocytes (BAC); glucose 0-0.5 mg/ml, early and late subcultured chondrocytes, FIGS. 11 and 12): higher in the absence of glucose or very low glucose concentration
CCC(=O)N[C@H]1C(O)O[C@H](CO)[C@@H](O)[C@@H]1O (stereo partly drawn) [GlcNpr, N-propionylglucosamine] | – | – | – | much reduced effect on cell growth | – | incorporation of labeled glucosamine into mucopolysaccharides [4]: inhibits the incorporation of labeled glucosamine into mucopolysaccharides
CCCC(=O)[O-].[Na+] [sodium butyrate, reference compound] | – | – | decreased cell growth | – | – | –
N-Butyryl-D-glucosamine (2-n-Butanamido-2-deoxy-D-glucopyranose) [GlcNbu] | – | – | – | – | isolated examples of improvement | tolerability ([5]; 500 mg per day on food, one week): tolerated at least at the same level as glucosamine; adverse reactions ([5]; 500 mg per day, one week): no adverse reactions were observed; protective effects (mobility/stiffness) compared to glucosamine ([5]; Phase 1, 500 mg per day, one week, listed as MGD): at least as good as glucosamine; also recorded: no appreciable difference from baseline; observation after withdrawal ([5]; Phase 2, Day 7 after MGD discontinued, listed as MGD): recurrence of a slight limp; also recorded: much stiffer gait and a slight limp
